The structures appear in SMILES notation.

In patent US20090036474A1, “Quinazoline derivatives for use against cancer” (priority 2004, published 2009) one finds IC50 data, which are given here for one molecule.

The subject of this test is MG63 osteosarcoma cells. Kind of test: In vitro MG63 osteosarcoma proliferation assay, Test (c). The format is cell-based. Particulars: Homo sapiens, MG-63, BrdU, 72 hours, read-out: IC50 versus MG63 osteosarcoma proliferation. As to the method:
This assay determined the ability of a test compound to inhibit the proliferation of MG63 osteosarcoma cells (ATCC CCL 1427):
MG63 cells were seeded at 1.5×10^3 cells per well into 96-well clear tissue culture-treated assay plates (Corning Life Sciences; Catalogue No. 3595) to which had been added 60 μl per well of test medium comprising DMEM without phenol red, 1% charcoal-stripped FCS and 2 mM glutamine and the cells were incubated overnight at 37° C. with 7.5% CO2.
Test compounds were solubilised in DMSO to provide a 10 mM stock solution. Aliquots of the stock solution were diluted with the test medium described above and 20 μl aliquots of each dilution were added to appropriate wells. Serial dilutions were made to give a range of test concentrations. […]
BrdU labelling reagent (Roche Diagnostics Ltd., Lewes, East Sussex, UK; Catalogue No. 647 229) was diluted by a factor of 1:100 in DMEM medium containing 1% charcoal stripped FCS and aliquots (10 μl) were added to each well to give a final concentration of 10 μM. […] Aqueous sulphuric acid (1M; 50 μl) was added to the appropriate wells to stop any further reaction and the absorbance of the wells was measured at 450 nm. The extent of inhibition of cellular proliferation at a range of concentrations of each test compound was determined and an anti-proliferative IC50 value was derived.

`COc1cc2ncnc(Oc3cnn(CC(=O)Nc4cccc5c4OCO5)c3)c2cc1OC` [Example 2, N-(2,3-methylenedioxyphenyl)-2-[4-(6,7-dimethoxyquinazolin-4-yloxy)pyrazol-1-yl]acetamide]: the IC50 was about 40 nM.
